Reference: patent publication US8436043B2 (Takeda Pharmaceutical Company Limited, priority 2008, dated 2013)

Biological target: T1, human glucagon receptor (Homo sapiens, UniProt P47871)
T1 construct: made in house; host or cells: FreeStyle CHO cells, transient transfection with pMSRαneo/hGCGR; membrane fraction (35,000 rpm pellet)
Assay: Glucagon binding inhibitory activity ([125I]-glucagon binding to glucagon receptor membrane protein)
Conditions: test compound 10 μM; 0.4% DMSO = 0%, non-labeled glucagon 1 μM = 100%
Description: The glucagon binding inhibitory action of the compound of the present invention was evaluated by the following method.
(1) Cloning of Human Glucagon Receptor Gene
Human glucagon receptor gene was cloned by PCR reaction using human pancreas Marathon-ready cDNA (Clontech) as a template and the following primer set.
PCR reaction was performed using Advantage 2 polymerase (Clontech) and according to the attached protocol. The obtained PCR product was electrophoresed on an agarose gel (1%). An about 1.4 kb of DNA fragment containing a glucagon receptor gene was recovered from the gel and digested with restriction enzymes EcoRI and NotI. DNA treated with the restriction enzymes was electrophoresed on an agarose gel (1%). An about 1.4 kb of DNA fragment was recovered and ligated to plasmid pMSRαneo digested with restriction enzymes EcoRI and NotI to construct a human-type glucagon receptor expression plasmid DNA “pMSRαneo/hGCGR”.
(2) Preparation of Glucagon Receptor Membrane Protein
A human-type glucagon receptor was expressed using FreeStyle CHO Expression System (Invitrogen). A transient expression in FreeStyle CHO cell was performed using a human-type glucagon receptor expression plasmid DNA “pMSRαneo/hGCGR” and according to the manual attached to the FreeStyle CHO Expression System. The above-mentioned DNA was transfected and the cultured with shaking for 2 days (37° C., 8% CO2, 125 rpm). 2400 ml of culture medium was centrifuged at 2,000 rpm for 10 min and the cells were collected. The collected cells were washed with PBS, suspended in homogenate buffer [10 mM NaHCO3 (pH 7.4), 1 mM EDTA, Complete EDTA-free (Roche, 1 tablet/50 ml)] and disrupted by polytron cell disrupter (Kinematica AG). Disruption solution was centrifuged at 2,000 rpm for 10 min and the supernatant was collected.
(3) Measurement of Glucagon Binding Inhibitory Activity
The plate was stood for 90 min at room temperature. The reaction solution was transferred from the reaction plate to a 96 well unifilter GF/C plate (Perkin Elmer Inc.) using a cell harvester (Perkin Elmer Inc.) and the membrane fraction was collected on the filter by suction. The filter was presoaked in 2 mg/ml of polyethyleneimine to prevent non-specific adsorption of labeled ligand. The filter was washed 4 times with a reaction buffer and dried for 2 hr at 42° C. To each well was added 25 μl of scintillator (MicroScint0; Perkin Elmer Inc.), and the fluorescence amount was measured using a microplate scintillation counter (TopCount NXT™; Perkin Elmer Inc.).
In addition, the inhibitory rate (%) of the well added with the test compound (10 μM; containing 0.4% DMSO) was calculated, using the reaction rate of the well added only with 0.4% DMSO as 0% inhibitory rate, and the reaction rate of the well added with non-labeled glucagon (final concentration 1 μM) as 100% inhibitory rate.

T1 sequence (P47871 26-477): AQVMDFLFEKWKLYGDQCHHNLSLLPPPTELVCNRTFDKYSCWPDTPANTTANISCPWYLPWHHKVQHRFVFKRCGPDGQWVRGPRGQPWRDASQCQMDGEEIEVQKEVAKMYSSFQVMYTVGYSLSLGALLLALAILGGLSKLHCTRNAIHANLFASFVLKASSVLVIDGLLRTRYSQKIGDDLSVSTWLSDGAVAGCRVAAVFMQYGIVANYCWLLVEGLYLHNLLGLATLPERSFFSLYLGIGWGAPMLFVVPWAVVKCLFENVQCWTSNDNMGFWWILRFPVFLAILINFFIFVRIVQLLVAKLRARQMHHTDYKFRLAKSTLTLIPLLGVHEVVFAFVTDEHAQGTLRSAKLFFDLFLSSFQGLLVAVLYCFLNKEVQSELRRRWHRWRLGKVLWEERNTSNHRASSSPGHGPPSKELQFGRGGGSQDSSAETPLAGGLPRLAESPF

`Cc1c(C(Nc2ccc(C(=O)N(C)CCC(=O)O)cn2)C2CCCCC2)oc2ccc(F)cc12` (stereo not drawn) [Example A54, 3-{[(6-{[cyclohexyl(5-fluoro-3-methyl-1-benzofuran-2-yl)methyl]amino}pyridin-3-yl)carbonyl](methyl)amino}propanoic acid] was tested, and the “inhibitory rate (%) at 10 μM” value was 52%.

Same assay, conditions: test compound 10 μM; 0.4% DMSO = 0%, non-labeled glucagon 1 μM = 100%; read-out: inhibitory rate (%) at 10 μM

In order of falling inhibition at 10 µM:
1. Cc1c(C(Nc2ccc(C(=O)N(C)CCC(=O)O)cc2)C2CCCCC2)oc2ccc(Oc3ccccn3)cc12 (stereo not drawn) [Example A200, 3-[{[4-({cyclohexyl[3-methyl-5-(pyridin-2-yloxy)-1-benzofuran-2-yl]methyl}amino)phenyl]carbonyl}(methyl)amino]propanoic acid]  89%
2. Cc1c(C(Nc2ccc(C(=O)N(C)CCC(=O)O)cc2)C2CCCCC2)oc2ccc(OC3CCOCC3)cc12 (stereo not drawn) [Example A82, 3-[{[4-({cyclohexyl[3-methyl-5-(tetrahydro-2H-pyran-4-yloxy)-1-benzofuran-2-yl]methyl}amino)phenyl]carbonyl}(methyl)amino]propanoic acid]  89%
3. Cc1c(C(Nc2ccc(C(=O)N(C)CCC(=O)O)cc2)C2CCCCC2)oc2ccc(OCc3ccccn3)cc12 (stereo not drawn) [Example A155, 3-[{[4-({cyclohexyl[3-methyl-5-(pyridin-2-ylmethoxy)-1-benzofuran-2-yl]methyl}amino)phenyl]carbonyl}(methyl)amino]propanoic acid]  81%
4. Cc1c(C(CC(C)C)Nc2ccc(C(=O)NCCC(=O)O)cc2)oc2ccc(Cl)cc12 (stereo not drawn) [Example A100, 3-{[(4-{[1-(5-chloro-3-methyl-1-benzofuran-2-yl)-3-methylbutyl]amino}phenyl)carbonyl]amino}propanoic acid]  78%
5. Cc1ccc2oc(C(Nc3ccc(C(=O)NCCC(=O)O)cc3)C3CCCCC3)c(C)c2c1 (stereo not drawn) [Example A90, 3-{[(4-{[cyclohexyl(3,5-dimethyl-1-benzofuran-2-yl)methyl]amino}phenyl)carbonyl]amino}propanoic acid]  77%
6. COCc1nn(-c2ccc(OC(F)(F)F)cc2)cc1C(Nc1ccc(C(=O)NCCC(=O)O)cc1)C1CCCCC1 (stereo not drawn) [Example 33, 3-[({4-[(cyclohexyl{3-(methoxymethyl)-1-[4-(trifluoromethoxy)phenyl]-1H-pyrazol-4-yl}methyl)amino]phenyl}carbonyl)amino]propanoic acid]  75%
7. CCc1c(C(CC(C)C)Nc2ccc(C(=O)NCCC(=O)O)cc2)oc2ccccc12 (stereo not drawn) [Example A34, 3-{[(4-{[1-(3-ethyl-1-benzofuran-2-yl)-3-methylbutyl]amino}phenyl)carbonyl]amino}propanoic acid]  75%
8. COc1nn(-c2ccc(OC(F)(F)F)cc2)cc1C(Nc1ccc(C(=O)N(C)CCC(=O)O)cc1)C1CCCCC1 (stereo not drawn) [Example 63, 3-[({4-[(cyclohexyl{3-methoxy-1-[4-(trifluoromethoxy)phenyl]-1H-pyrazol-4-yl}methyl)amino]phenyl}carbonyl)(methyl)amino]propanoic acid]  72%
9. CN(CCC(=O)O)C(=O)c1ccc(NC(c2cn(-c3ccc(C(F)(F)F)cn3)nc2C(C)(C)C)C2CCCCC2)cc1 (stereo not drawn) [Example 14, 3-{[(4-{[{3-tert-butyl-1-[5-(trifluoromethyl)pyridin-2-yl]-1H-pyrazol-4-yl}(cyclohexyl)methyl]amino}phenyl)carbonyl](methyl)amino}-propanoic acid]  71%
10. CCCCCCC(Nc1ccc(C(=O)N(C)CCC(=O)O)cc1)c1oc2ccc(OC)cc2c1C (stereo not drawn) [Example A119, 3-{[(4-{[1-(5-methoxy-3-methyl-1-benzofuran-2-yl)heptyl]amino}phenyl)carbonyl](methyl)amino}propanoic acid]  70%
11. Cc1c(C(Nc2ccc(C(=O)N(C)CCC(=O)O)cc2)C2CCCCC2)sc2cnccc12 (stereo not drawn) [Example A136, 3-{[(4-{[cyclohexyl(3-methylthieno[2,3-c]pyridin-2-yl)methyl]amino}phenyl)carbonyl](methyl)amino}propanoic acid]  62%
